Laboratory results from patent US10213392B2, “Pharmaceutical composition for use in medical and veterinary ophthalmology” (Mitotech SA, priority 2009, dated 2019).
Entries after “also recorded” stand apart in the source; their conditions may differ.

Legend:
[1] = Stability of SkQ1 in solutions containing benzalkonium chloride (storage 24 hours at room temperature, HPLC-MS/MS); type: physicochemical; settings: for Determined concentration of SkQ1 in 24 hours: 10 mM sodium phosphate pH 6.5, 0.9% NaCl
Method: (§1) Materials and Method for Quantitative Detection of SkQ1
(§2) Analysis is carried out by high-performance liquid chromatography with MS/MS detection.
(§3) 100 μL of the internal standard solution is placed into a 10 ml flask, 5 ml of the water-ethanol solution is added and stirred for 11 min. 500 μL of sample solution is added to 0.1 ml of a 0.5 M solution of 3-chloroperbenzoic acid in ethanol, and the volume is adjusted to the mark with ethanol-water solution and stirred for 30 min. 1 ml of the resulting solution is transferred into a chromatographic vial.
(§4) The chromatographic conditions are as follows: The device used is a Waters ACQUITY UPLC®. The column used is steel, 2.1×50 mm, filled with sorbent Acquity BEH C18, 1.7 μm (Waters, P/N 186002350) or equivalent. The column temperature is 35° C. The mobile phase is eluent A: 20 mM solution of formic acid in 5% aqueous acetonitrile and eluent B: 20 mM solution of formic acid in aqueous acetonitrile. The flow rate is 0.5 ml/min. The volume of injection is the total loop (about 11 μL). The elution mode is a gradient of eluents A and B according to Table 4.
(§5) The time of the analysis is about 5 min. The detector is a Waters TQD (tri-quadrupole) for MS/MS.
(§6) The conditions of detection is as follows: The electrospraying mode is positive (ES+). The working mode is monitoring of reactions of settled ions (MRM). The temperature of the ion source is 120° C. The vaporization temperature is 450° C. The cone voltage is 55 V. The capillary voltage is 3.0 kV. The collision gas (CID) is argon. The collision gas flow rate is 0.18 ml/min. The collision gas pressure (CID) is 4.5×10^−3 mbar. The transitions of scans and collision energy are according to Table 5.
(§7) The SkQ1 content in the product (μg/ml) was calculated using the equation:
(§8) [formula] • “S/Ssmpl” is the ratio of peak areas and SkQ1 and SkQ1-d15 in chromatograms of the sample solution; • “S/Sstd” is the ratio of SkQ1 and SkQ1-d15 peak areas in chromatograms of the SS solution; • “a” is the amount of SkQ1 taken to prepare the original standard solution, in mgs; • “W” is the water content and organic solvents in SkQ1 substance taken to prepare the original standard solution, in percent; and • “P” is the SkQ1 content in SkQ1 substance taken to prepare the original standard solution, in percent.

[2] = Stability of SkQ1 in solutions with different prolongators (storage 50 days at room temperature, HPLC-MS/MS); type: physicochemical; settings: for Relative content of SkQ1 after incubation for 50 days: 10 mM sodium phosphate pH 6.5, 0.9% NaCl, 0.01% benzalkonium chloride, room temperature
Method: as §1, §2, §3, §4, §5, §6, §7, §8

- Decrease of the concentration of SkQ1 ([1]; absence of benzalkonium chloride, 24 hours): 58%
- Determined concentration of SkQ1 in 24 hours ([1]; benzalkonium chloride 0 (control) %, added SkQ1 250 nM): 104 nM
- Relative content of SkQ1 ([1]; benzalkonium chloride 0 (control) %, added SkQ1 250 nM, 24 hours): 42%
- Determined concentration of SkQ1 in 24 hours ([1]; benzalkonium chloride 0.01%, added SkQ1 50 nM): 56 nM
- Relative content of SkQ1 ([1]; benzalkonium chloride 0.01%, added SkQ1 50 nM, 24 hours): 112%
- Determined concentration of SkQ1 in 24 hours ([1]; benzalkonium chloride 0.01%, added SkQ1 100 nM): 97 nM
- Relative content of SkQ1 ([1]; benzalkonium chloride 0.01%, added SkQ1 100 nM, 24 hours): 97%
- Determined concentration of SkQ1 in 24 hours ([1]; benzalkonium chloride 0.01%, added SkQ1 180 nM): 180 nM
- Relative content of SkQ1 ([1]; benzalkonium chloride 0.01%, added SkQ1 180 nM, 24 hours): 100%
- Determined concentration of SkQ1 in 24 hours ([1]; benzalkonium chloride 0.01%, added SkQ1 250 nM): 254 nM
- Relative content of SkQ1 ([1]; benzalkonium chloride 0.01%, added SkQ1 250 nM, 24 hours): 102%
- Relative content of SkQ1 after incubation for 50 days ([2]; 0.2% HPMC): 93%
- Effect of prolongator on SkQ1 concentration during storage (in words) ([2]; 0.2% HPMC, 50 days at room temperature): stabilizes the concentration
- Relative content of SkQ1 after incubation for 50 days ([2]; 0.2% MC): 79%
- Relative content of SkQ1 after incubation for 50 days ([2]; control (no prolongator)): 83%
SMILES: Br.CC1=C(C)C(=O)C(CCCCCCCCCC[P+](c2ccccc2)(c2ccccc2)c2ccccc2)=CC1=O [SkQ1]
- Decrease of SkQ1 concentration during storage (in words) ([1]; addition of 0.01% benzalkonium chloride, SkQ1 up to 250 nM, 24 hours): completely prevented; also recorded: prevents a decrease in the concentration
